From ChEMBL document CHEMBL5291721, “A preclinical secondary pharmacology resource illuminates target-adverse drug reaction associations of marketed drugs” (Nat Commun, 2023)

Columns and labels:
[1] = target: Beta-2 adrenergic receptor (Homo sapiens, UniProt P07550); type: functional, cell-based
[2] = target: Cannabinoid receptor 1 (Homo sapiens, UniProt P21554); type: functional, cell-based
[3] = target: T1, Estrogen receptor (Homo sapiens, UniProt P03372)
T1 sequence (P03372 whole entry): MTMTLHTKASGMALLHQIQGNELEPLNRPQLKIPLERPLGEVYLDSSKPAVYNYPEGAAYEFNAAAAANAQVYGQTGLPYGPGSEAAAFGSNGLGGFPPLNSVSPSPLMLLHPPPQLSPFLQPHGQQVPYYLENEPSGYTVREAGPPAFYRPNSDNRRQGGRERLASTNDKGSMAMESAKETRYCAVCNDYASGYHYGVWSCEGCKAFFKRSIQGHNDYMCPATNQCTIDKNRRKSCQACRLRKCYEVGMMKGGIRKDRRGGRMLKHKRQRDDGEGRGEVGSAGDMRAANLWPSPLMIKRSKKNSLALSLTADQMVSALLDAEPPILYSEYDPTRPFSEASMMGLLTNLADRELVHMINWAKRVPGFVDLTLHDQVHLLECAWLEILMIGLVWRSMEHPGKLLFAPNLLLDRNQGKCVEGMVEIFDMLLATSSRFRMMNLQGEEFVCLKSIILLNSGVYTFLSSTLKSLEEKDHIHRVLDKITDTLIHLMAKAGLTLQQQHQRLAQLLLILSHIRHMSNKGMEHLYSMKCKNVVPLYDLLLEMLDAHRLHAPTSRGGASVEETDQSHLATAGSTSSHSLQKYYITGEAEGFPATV

[4] = target: T2, Glucocorticoid receptor (Homo sapiens, UniProt P04150)
T2 sequence (P04150 whole entry): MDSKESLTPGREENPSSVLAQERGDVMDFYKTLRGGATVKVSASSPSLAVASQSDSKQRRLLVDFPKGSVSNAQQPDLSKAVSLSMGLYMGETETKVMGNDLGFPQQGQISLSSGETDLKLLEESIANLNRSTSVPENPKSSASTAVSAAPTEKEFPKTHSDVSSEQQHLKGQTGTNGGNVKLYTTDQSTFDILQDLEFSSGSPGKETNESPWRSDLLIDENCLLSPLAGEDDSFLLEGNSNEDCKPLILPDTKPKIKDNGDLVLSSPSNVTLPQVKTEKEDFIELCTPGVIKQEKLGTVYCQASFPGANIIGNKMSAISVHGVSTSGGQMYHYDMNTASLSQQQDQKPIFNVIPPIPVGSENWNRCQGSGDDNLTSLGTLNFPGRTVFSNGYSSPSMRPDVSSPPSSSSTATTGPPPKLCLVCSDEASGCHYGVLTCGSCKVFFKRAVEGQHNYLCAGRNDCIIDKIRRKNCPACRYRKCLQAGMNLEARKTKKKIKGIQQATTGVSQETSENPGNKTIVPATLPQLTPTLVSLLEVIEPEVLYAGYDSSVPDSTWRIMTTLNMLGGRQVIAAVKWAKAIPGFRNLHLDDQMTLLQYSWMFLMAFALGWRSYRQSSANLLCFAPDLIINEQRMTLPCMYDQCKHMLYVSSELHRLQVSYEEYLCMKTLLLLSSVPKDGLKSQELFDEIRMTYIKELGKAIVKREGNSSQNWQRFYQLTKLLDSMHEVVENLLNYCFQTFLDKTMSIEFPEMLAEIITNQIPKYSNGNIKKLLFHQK

[5] = target: Mu-type opioid receptor (Homo sapiens, UniProt P35372); test: biochemical; type: functional
Sequence of Mu-type opioid receptor (P35372 whole entry): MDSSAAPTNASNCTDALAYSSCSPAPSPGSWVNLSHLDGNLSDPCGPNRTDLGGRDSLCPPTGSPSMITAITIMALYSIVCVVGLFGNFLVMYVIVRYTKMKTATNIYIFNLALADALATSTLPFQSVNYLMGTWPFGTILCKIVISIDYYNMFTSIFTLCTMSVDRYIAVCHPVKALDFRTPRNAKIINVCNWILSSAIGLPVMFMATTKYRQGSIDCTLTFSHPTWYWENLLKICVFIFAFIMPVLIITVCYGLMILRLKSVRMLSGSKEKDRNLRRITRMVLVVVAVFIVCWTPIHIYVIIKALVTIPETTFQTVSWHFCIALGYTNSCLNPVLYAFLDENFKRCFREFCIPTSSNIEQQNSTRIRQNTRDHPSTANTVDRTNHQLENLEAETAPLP

[6] = target: T3, Progesterone receptor (Homo sapiens, UniProt P06401)
T3 sequence (P06401 whole entry): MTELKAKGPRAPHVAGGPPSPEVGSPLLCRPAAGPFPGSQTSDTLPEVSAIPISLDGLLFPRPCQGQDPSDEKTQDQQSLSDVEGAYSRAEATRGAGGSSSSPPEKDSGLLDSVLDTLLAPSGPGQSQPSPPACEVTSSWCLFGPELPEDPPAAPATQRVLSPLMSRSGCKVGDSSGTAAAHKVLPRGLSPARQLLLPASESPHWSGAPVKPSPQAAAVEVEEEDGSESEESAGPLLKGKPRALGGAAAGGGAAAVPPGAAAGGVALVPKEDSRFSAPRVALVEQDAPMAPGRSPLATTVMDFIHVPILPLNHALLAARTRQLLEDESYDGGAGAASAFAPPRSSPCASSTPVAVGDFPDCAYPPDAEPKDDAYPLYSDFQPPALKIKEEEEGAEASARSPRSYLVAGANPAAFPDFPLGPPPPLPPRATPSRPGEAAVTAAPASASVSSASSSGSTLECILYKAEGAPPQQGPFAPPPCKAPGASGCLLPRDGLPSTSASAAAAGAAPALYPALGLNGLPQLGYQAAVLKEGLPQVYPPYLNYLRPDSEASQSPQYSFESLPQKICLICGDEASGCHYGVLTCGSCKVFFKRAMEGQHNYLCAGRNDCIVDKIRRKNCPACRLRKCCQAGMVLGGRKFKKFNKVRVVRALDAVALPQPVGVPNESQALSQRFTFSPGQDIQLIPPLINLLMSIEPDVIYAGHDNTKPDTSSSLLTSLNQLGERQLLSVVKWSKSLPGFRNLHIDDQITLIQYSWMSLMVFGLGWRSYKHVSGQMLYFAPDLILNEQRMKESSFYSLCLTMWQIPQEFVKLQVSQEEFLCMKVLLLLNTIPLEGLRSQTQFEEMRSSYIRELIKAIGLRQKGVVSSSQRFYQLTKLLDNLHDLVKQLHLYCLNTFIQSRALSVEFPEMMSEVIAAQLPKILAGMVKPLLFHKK

[7] = target: 5-hydroxytryptamine receptor 2B (Homo sapiens, UniProt P41595); type: functional, cell-based
Sequence of 5-hydroxytryptamine receptor 2B (P41595 whole entry): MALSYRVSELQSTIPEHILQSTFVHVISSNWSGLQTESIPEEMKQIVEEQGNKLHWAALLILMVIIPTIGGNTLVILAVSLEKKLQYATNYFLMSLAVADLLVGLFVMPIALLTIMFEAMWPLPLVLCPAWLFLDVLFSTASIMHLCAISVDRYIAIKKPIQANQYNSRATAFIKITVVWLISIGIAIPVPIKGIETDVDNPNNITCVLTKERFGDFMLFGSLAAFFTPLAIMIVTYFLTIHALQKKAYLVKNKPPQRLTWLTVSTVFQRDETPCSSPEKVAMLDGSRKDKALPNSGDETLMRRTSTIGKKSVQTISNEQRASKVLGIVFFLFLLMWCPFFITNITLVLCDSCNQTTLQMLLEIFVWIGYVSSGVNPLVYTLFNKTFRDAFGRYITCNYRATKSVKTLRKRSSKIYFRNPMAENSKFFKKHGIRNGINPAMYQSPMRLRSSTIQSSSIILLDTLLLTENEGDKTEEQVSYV

[8] = target: T3, Progesterone receptor; type: functional
[9] = target: T4, Muscarinic acetylcholine receptor M1 (Homo sapiens, UniProt P11229); type: functional, cell-based
T4 sequence (P11229 whole entry): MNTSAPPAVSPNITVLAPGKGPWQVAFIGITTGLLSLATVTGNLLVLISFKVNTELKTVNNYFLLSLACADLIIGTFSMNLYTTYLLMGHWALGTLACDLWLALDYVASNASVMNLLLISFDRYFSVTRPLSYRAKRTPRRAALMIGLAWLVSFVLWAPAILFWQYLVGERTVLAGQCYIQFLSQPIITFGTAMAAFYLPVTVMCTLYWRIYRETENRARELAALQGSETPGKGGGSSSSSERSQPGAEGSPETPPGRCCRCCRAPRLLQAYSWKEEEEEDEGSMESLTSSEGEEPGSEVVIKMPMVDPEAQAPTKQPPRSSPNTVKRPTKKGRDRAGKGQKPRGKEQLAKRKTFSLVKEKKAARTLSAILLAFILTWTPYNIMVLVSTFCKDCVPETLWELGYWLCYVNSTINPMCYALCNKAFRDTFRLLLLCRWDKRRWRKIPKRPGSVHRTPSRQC
Further: assay procedure not described here.

Sequence of Beta-2 adrenergic receptor (P07550 whole entry): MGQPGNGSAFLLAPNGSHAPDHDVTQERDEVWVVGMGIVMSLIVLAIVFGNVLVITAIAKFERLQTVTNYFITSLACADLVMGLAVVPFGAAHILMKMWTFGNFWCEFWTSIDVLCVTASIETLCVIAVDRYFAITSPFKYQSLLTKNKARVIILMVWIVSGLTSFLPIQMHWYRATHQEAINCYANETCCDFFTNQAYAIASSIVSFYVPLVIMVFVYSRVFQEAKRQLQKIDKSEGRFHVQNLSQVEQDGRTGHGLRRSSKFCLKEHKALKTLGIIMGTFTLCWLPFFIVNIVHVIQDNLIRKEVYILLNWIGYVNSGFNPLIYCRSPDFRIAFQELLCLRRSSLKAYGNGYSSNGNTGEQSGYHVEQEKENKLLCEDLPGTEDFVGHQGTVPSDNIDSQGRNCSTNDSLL
Sequence of Cannabinoid receptor 1 (P21554 whole entry): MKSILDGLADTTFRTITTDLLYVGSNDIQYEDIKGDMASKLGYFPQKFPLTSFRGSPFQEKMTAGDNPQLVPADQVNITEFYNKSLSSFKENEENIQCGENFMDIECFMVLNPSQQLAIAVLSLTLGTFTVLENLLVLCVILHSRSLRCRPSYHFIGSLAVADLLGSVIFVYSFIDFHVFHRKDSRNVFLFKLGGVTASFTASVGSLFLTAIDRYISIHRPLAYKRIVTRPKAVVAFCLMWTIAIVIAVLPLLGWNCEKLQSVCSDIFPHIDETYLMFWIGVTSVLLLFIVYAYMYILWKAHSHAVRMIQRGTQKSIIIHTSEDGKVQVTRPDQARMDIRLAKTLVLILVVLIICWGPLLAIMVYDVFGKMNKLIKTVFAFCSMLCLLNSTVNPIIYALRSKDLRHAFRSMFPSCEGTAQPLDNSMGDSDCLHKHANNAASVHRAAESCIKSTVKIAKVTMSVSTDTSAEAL

Compound	AC50 [1] [µM]	AC50 [2] [µM]	AC50 [3] [µM]	AC50 [4] [µM]	AC50 [5] [µM]	AC50 [6] [µM]	AC50 [7] [µM]	AC50 [8] [µM]	AC50 [9] [µM]
CN1CCN(C2=Nc3ccccc3Oc3ccc(Cl)cc32)CC1 [LOXAPINE]	> 30	> 30	> 30	> 30	> 30	> 30			
CC(CCc1ccc(O)cc1)NCCc1ccc(O)c(O)c1 (centres undefined) [DOBUTAMINE]	> 30	> 30		> 30	> 30		> 30	> 30	
CC(=O)N[C@@H](CS)C(=O)O [ACETYLCYSTEINE]	> 30	> 30		> 30	> 30		> 30	> 30	
CCC(=O)O[C@]1(C(=O)CCl)[C@@H](C)C[C@H]2[C@@H]3C[C@H](F)C4=CC(=O)C=C[C@]4(C)[C@@]3(F)[C@@H](O)C[C@@]21C [HALOBETASOL PROPIONATE]						0.003			14.9
Cc1cc(NC(=O)C2=C(O)c3ccccc3S(=O)(=O)N2C)no1 [ISOXICAM]						> 30			> 30
Oc1ccc2c(c1)CC[C@H](c1ccccc1)[C@@H]2c1ccc(OCCN2CCCC2)cc1 [LASOFOXIFENE]	> 30	> 30		9.3	> 30		9.49	> 30	
C[C@]12CC[C@@H]3c4ccc(O)cc4C[C@@H](CCCCCCCCC[S+]([O-])CCCC(F)(F)C(F)(F)F)[C@H]3[C@@H]1CC[C@@H]2O (some centres undefined) [FULVESTRANT]	> 30	> 30		1.1	> 30		> 30	> 30	
CC[C@@H]([C@H](C)O)n1ncn(-c2ccc(N3CCN(c4ccc(OC[C@@H]5CO[C@@](Cn6cncn6)(c6ccc(F)cc6F)C5)cc4)CC3)cc2)c1=O [POSACONAZOLE]						> 30		> 30	> 1
CN(C)CCCNc1c2ccccc2nc2cccc([N+](=O)[O-])c12 [NITRACRINE]	> 30	> 30		> 30	> 30		0.76	> 30	
CCC(C)C1(CC)C(=O)NC(=O)NC1=O (centres undefined) [BUTABARBITAL]	> 30	> 30		> 30	> 30		> 30	> 30	
CC(C(=O)O)c1ccc(CC2CCCC2=O)cc1 (centres undefined) [LOXOPROFEN]	> 30	> 30			> 30		> 30	> 30	
